# Experimental data reported in ChEMBL document CHEMBL1614632, “Trend analysis of a database of intravenous pharmacokinetic parameters in humans for 670 drug compounds” (Drug Metab Dispos, 2008).
# Experiments:
# clinical [1] = settings: human, in vivo, iv, Vdss
# clinical [2] = settings: human, in vivo, iv, CL
# clinical [3] = settings: human, in vivo, iv
# clinical [4] = settings: human, in vivo, iv; remark: listed apart in the source
# clinical [5] = settings: human, in vivo, iv, t1/2
SMILES,Vd (clinical [1]) [L/kg],clearance (clinical [2]) [L/h/kg],fraction unbound (clinical [3]),MRT (clinical [4]) [h],half-life (clinical [5]) [h]
Cc1nnc2n1-c1sc(Br)cc1C(c1ccccc1Cl)=NC2 [BROTIZOLAM],0.75,0.12,0.092,6,4.8
Cc1ccccc1OCC(O)CNCCOc1ccc(C(N)=O)cc1 (stereo not drawn) [TOLAMOLOL],4,0.84,0.089,4.8,2.5
C[C@H](O)C(=O)Nc1c(I)c(C(=O)NC(CO)CO)c(I)c(C(=O)NC(CO)CO)c1I [IOPAMIDOL],0.28,0.114,1,2.5,2.1
C#C[C@]1(O)CC[C@H]2[C@@H]3CCc4cc(O)ccc4[C@H]3CC[C@@]21C [ETHINYL ESTRADIOL],4.3,0.42,0.014,11,9.7
COc1cc(NCc2ccc3nc(N)nc(N)c3c2C)cc(OC)c1OC [TRIMETREXATE],0.77,0.0462,0.05,17,17
CCN(CC)CCS(=O)(=O)[C@@H]1CCN2C(=O)c3coc(n3)CC(=O)C[C@H](O)/C=C(C)/C=C/CNC(=O)/C=C/[C@@H](C)[C@@H](C(C)C)OC(=O)[C@@H]12 [DALFOPRISTIN],0.39,0.96,0.82,0.41,0.74
CC(C)=CCN1CC[C@]2(C)c3cc(O)ccc3C[C@H]1[C@H]2C [(+)-PENTAZOCINE],3.4,1.38,0.39,2.5,–
C/C=C/C[C@@H](C)C(=O)[C@H]1C(=O)N[C@@H](C(C)C)C(=O)N(C)CC(=O)N(C)[C@@H](CC(C)C)C(=O)N[C@@H](C(C)C)C(=O)N(C)[C@@H](CC(C)C)C(=O)N[C@@H](C)C(=O)N[C@H](C)C(=O)N(C)[C@@H](CC(C)C)C(=O)N(C)[C@@H](CC(C)C)C(=O)N(C)[C@@H](C(C)C)C(=O)N1C [VALSPODAR],1.8,0.156,0.022,12,10
CN[C@@H]1C[C@H]2O[C@@](C)([C@@H]1OC)n1c3ccccc3c3c4c(c5c6ccccc6n2c5c31)C(=O)N[C@@H]4O,0.15,0.000222,0.0022,680,790
COc1ccccc1Oc1c(NS(=O)(=O)c2ccc(C(C)C)cn2)nc(-c2ccnc(-c3nnn[nH]3)c2)nc1OCCO [TEZOSENTAN],0.28,0.486,0.0085,–,3.8
O=C1CCc2ccc(OCCCCN3CCN(c4cccc(Cl)c4Cl)CC3)cc2N1 [ARIPIPRAZOLE],4.9,0.0498,0.01,98,75
COc1ccc(CC2c3cc(OC)c(OC)cc3CC[N+]2(C)CCC(=O)OCCCCCOC(=O)CC[N+]2(C)CCc3cc(OC)c(OC)cc3C2Cc2ccc(OC)c(OC)c2)cc1OC (stereo not drawn),0.1,0.342,0.52,0.29,0.31
NNC(=O)c1ccncc1 [ISONIAZID],0.82,0.444,1,1.8,–
CC[C@H]1OC(=O)[C@H](C)C(=O)[C@H](C)[C@@H](O[C@@H]2O[C@H](C)C[C@H](N(C)C)[C@H]2O)[C@](C)(OC)C[C@@H](C)C(=O)[C@H](C)[C@H]2N(CCCCn3cnc(-c4cccnc4)c3)C(=O)O[C@]12C [TELITHROMYCIN],3,0.84,0.41,3.6,12
CC1(C)C[C@@H]1C(=O)N/C(=C\CCCCSC[C@H](N)C(=O)O)C(=O)O [CILASTATIN],0.15,0.138,0.6,1.1,0.86
CCOC(=O)C1=C(C)NC(C)=C(C(=O)OC)C1c1cccc([N+](=O)[O-])c1 (stereo not drawn) [NITRENDIPINE],6.1,1.5,0.02,4.1,8.2

SMILES,Vd (clinical [1]) [L/kg],clearance (clinical [2]) [L/h/kg],fraction unbound (clinical [3]),MRT (clinical [4]) [h],half-life (clinical [5]) [h]
CCN(CC)CCNC(=O)c1ccc(NC(C)=O)cc1 [ACECAINIDE],1.9,0.24,0.9,7.9,6.4
O=C1CCC(N2C(=O)c3ccccc3C2=O)C(=O)N1 (stereo not drawn) [THALIDOMIDE],0.95,0.204,0.4,4.3,4.7
CC1(C)S[C@@H]2[C@H](NC(=O)Cc3ccccc3)C(=O)N2[C@H]1C(=O)O [PENICILLIN G],0.24,0.414,0.4,0.58,0.7
CC#CCC(C)[C@H](O)/C=C/[C@@H]1[C@H]2C/C(=C/CCCC(=O)O)C[C@H]2C[C@H]1O (stereo partly drawn) [ILOPROST],0.37,0.96,0.4,–,0.57
CC[C@H](C)C[C@H](C)CCCCCCCCC(=O)N[C@H]1C[C@@H](O)[C@@H](NCCN)NC(=O)[C@@H]2[C@@H](O)CCN2C(=O)[C@H]([C@H](O)CCN)NC(=O)[C@H]([C@H](O)[C@@H](O)c2ccc(O)cc2)NC(=O)[C@@H]2C[C@@H](O)CN2C(=O)[C@H]([C@@H](C)O)NC1=O [CASPOFUNGIN],0.13,0.0084,0.035,15,–
CCc1cccc2cc(C(O)CNC(C)(C)C)oc12 (stereo not drawn) [BUFURALOL],–,0.534,0.19,3.18,2.3
CN1CCc2cccc3c2[C@H]1Cc1ccc(O)c(O)c1-3 [APOMORPHINE],1.6,2.4,0.057,–,–
CC(C)(O/N=C(\C(=O)N[C@@H]1C(=O)N2C(C(=O)[O-])=C(C[n+]3ccccc3)CS[C@H]12)c1csc(N)n1)C(=O)O [CEFTAZIDIME],0.31,0.144,0.79,2.2,–
COc1ccc2c3c1O[C@H]1[C@@H](O)C=C[C@H]4[C@@H](C2)N(C)CC[C@@]341 [CODEINE],–,0.9,0.7,3.9,4
CC[C@H](OC(C)=O)C(C[C@H](C)N(C)C)(c1ccccc1)c1ccccc1 [LEVOMETHADYL ACETATE],8.3,0.324,0.2,26,–
CCC[C@H](N[C@@H](C)C(=O)N1[C@H](C(=O)O)C[C@@H]2CCCC[C@@H]21)C(=O)O [PERINDOPRILAT],–,0.102,0.16,7.6,29
N[C@@H](Cc1ccc(N(CCCl)CCCl)cc1)C(=O)O,0.48,0.42,0.14,1.1,–
C[C@H]1O[C@@H](O[C@H]2[C@@H](O)C[C@H](O[C@H]3[C@@H](O)C[C@H](O[C@H]4CC[C@@]5(C)[C@H](CC[C@@H]6[C@@H]5CC[C@]5(C)[C@@H](C7=CC(=O)OC7)CC[C@]65O)C4)O[C@@H]3C)O[C@@H]2C)C[C@H](O)[C@@H]1O [DIGITOXIN],0.44,0.00258,0.066,170,–
Cc1onc(-c2c(F)cccc2Cl)c1C(=O)N[C@@H]1C(=O)N2[C@@H]1SC(C)(C)[C@@H]2C(=O)O [FLOXACILLIN],0.19,0.144,0.043,1.3,–
Nc1n[n+]([O-])c2ccccc2[n+]1[O-] [TIRAPAZAMINE],0.56,0.534,0.81,1,–
CC/C=C\C/C=C\C/C=C\C/C=C\C/C=C\C/C=C/CCC(=O)O[C@@H](C(=O)O[C@H]1C[C@@]2(O)[C@@H](OC(=O)c3ccccc3)C3[C@](C)(C(=O)[C@H](OC(C)=O)C(=C1C)C2(C)C)[C@@H](O)C[C@H]1OC[C@@]31OC(C)=O)[C@@H](NC(=O)c1ccccc1)c1ccccc1 (stereo partly drawn) [DHA PACLITAXEL],–,0.0015,0.0038,45,60
